Measurements: patent publication EP1169044B1, “USE OF FUCOSYLATED SIALYLATED N-ACETYL LACTOSAMINE CARBOHYDRATE STRUCTURES FOR INHIBITION OF BACTERIAL ADHERENCE” (Borén, Thomas, priority 1999, dated 2000)

Tests used:
[1] = system: Helicobacter pylori strain CCUG 17875; assay: thin-layer chromatogram binding assay (radiolabelled bacteria overlaid on separated glycosphingolipids); details: glycosphingolipids on thin-layer chromatograms, autoradiogram
Method: (§1) The glycosphingolipids were separated and (A) visualised with anisaldehyde. Duplicate chromatograms were incubated with monoclonal (B) anti-sialyl-Lewis x, (C) anti-sialyl-Lewis a, and radiolabelled H. pylori (D) strain CCUG 17875, (E) the BabA1A2 mutant strain, and (F) strain CCUG 17874. Autoradiography was for 12 hr. The lanes contained: 1, Acid glycosphingolipids of calf brain, 40 µg; 2, Acid glycosphingolipids of human neutrophil granulocytes, 40 µg; 3, Acid glycosphingolipids of human neutrophil granulocytes after de-sialylation, 40 µg; 4, Acid glycosphingolipids of human gall bladder adenocarcinoma, 40 µg; 5, Acid glycosphingolipids of human gall bladder adenocarcinoma after de-sialylation, 40 µg; 6, NeuAcα3Galβ4(Fucα3)GlcNAcβ3Galβ4(Fucα3)GlcNAcβ3Galβ4Glcβ1Cer isolated from human gall bladder adenocarcinoma, 1 µg; 7, NeuAcα3Galβ3(Fucα4)GlcNAcβ3Galβ4Glcβ1-Cer (sialyl-Lewis a hexaglycosylceramide) isolated from human gall bladder adenocarcinoma, 4 µg; 8, NeuAcα3Galβ4(Fucα3)GlcNAcβ3Galβ4Glcβ1Cer (sialyl-Lewis x hexaglycosyl-ceramide), 4 µg; 9, Fucα2Galβ3(Fucα4)GlcNAcβ3Galβ4Glcβ1Cer (Lewis b-6 hexaglycosylceramide) of human small intestine, 4 µg.
(§2) Culture and ^35S-labelling of H. pylori was as outlined in (Ångström, J., Teneberg, S., Abul Milh, M,. Larsson, T., Leonardsson, I., Olsson, B.-M., Ölwegård Halvarsson, M., Danielsson, D., and Karlsson, K.-A. (1998). The lactosylceramide binding specificity of Helicobacter pylori. Glycobiology 8, 297-309.). Mixtures of glycosphingolipids (20-40 µg/lane) or pure compounds (0.002-4 µg/lane) were separated on aluminium-backed silica gel 60 HPTLC plates (Merck), using chloroform:methanol:water 60:35:8 (v/v/v) as solvent system. Chemical detection was done with anisaldehyde (Waldi, D. (1962) Sprühreagentien für die dünnschicht-chromatographie. In Dünnschicht-Chromatographie, E. Stahl ed. (Berlin: Springer-Verlag) pp. 496-51).
(§3) Binding of radiolabelled H. pylori to glycosphingolipids on thin-layer chromatograms was performed as described above (Ångström et al., 1998) using suspensions of bacteria diluted in phosphate-buffered saline (PBS), pH 7.3, to 1x10^8 CFU/ml. The specific activities of the suspensions were approximately 1 CPM per 100 H. pylori organisms. Binding of monoclonal antibodies was done as described (Magnani, J.L., Brockhaus, M., Smith, D.F., Ginsburg, V., Blaszczyk, M., Mitchell, K.F., Steplewski, Z., and Koprowski, H. (1981). A monosialoganglioside is a monoclonal antibody-defined antigen of colon-carcinoma. Science 212, 55-56). Anti-sialyl-Lewis x monoclonal antibodies (clone KM-93) were from Seikagaku Corp., Tokyo, Japan and anti-sialyl-Lewis a monoclonal antibodies (CA 19-9) from Signet Laboratories, Inc., Dedham, MA 02026, USA.
(§4) Screening of potential receptor structures unique for thebabA1/babA2-mutant was performed by adherence experiments to well-defined panels of MS-characterized glycolipids, from defined and unique sources and tissues. Binding of H. pylori and monoclonal antibodies to glycosphingo-lipids was evaluated using the thin-layer chromatogram binding assay (J. Ångström et al., Glycobiology 8, 297 (1998); J. M. McKibbin et al., J. Biol. Chem. 257,755 (1982)), i.e., glyco-lipids were separated on HPTLC-plates, and H. pylori CCUG 17875 wild type bacteria and the babA1/babA2-mutant were overlaid on the plates and binding of radio labelled bacterial cells was detected. (See Experimental procedures).

[2] = system: strain CCUG 17874, the BabA2 mutant and the BabA1A2 mutant; assay: as above; parameters: species or system Helicobacter pylori; details: for Binding obtained with strain CCUG 17874, the babA2 mutant and the babA1A2 mutant: glycosphingolipids on thin-layer chromatograms, autoradiogram; for binding to glycosphingolipids on thin-layer chromatograms (in words): CCUG 17874, babA2 mutant, babA1A2 mutant
Method: as §1, §2, §3, §4

H. pylori strains = assay: radio immuno analysis (RIA) with 125I-labelled neoglycoconjugates; assay type: binding, Helicobacter pylori; details: strains of Fig. 4 (BabA2 mutant, babA1A2 mutant, CCUG 17875, CCUG 17874), 400 ng conjugate, 30 min
Method: Bars, from the left to the right; The sialyl-alfa2.61actose-, sialyl-alfa2.31actose-, sialyl-Lewis a-, sialyl-Lewis x-, and Lewis b-, synthesised sialyl-Lewis x- sialyl-acetyllactosaminee, both with a either a 3 carbon or 14 carbon (extended/hydrophilic) spacer, conjugated to albumin, Finally, the histo-blood group antigen Lewis y (synthesised penta-saccharide) (V. Behar and S.J. Danishefsky, Angew. Chem. Int. Ed. Engi, 1994, 33, no. 14, 1468.), was analysed as a neo-glycoconjugate.
(§5) The sialyl-alfa2.3lactose-, sialyl-alfa2.61actose-, sialyl-Lewis a-, and Lewis b-oligosaccharide antigens used for neoglycoconjugate preparations were purified by HPLC, structurally identified and characterized with NMR-spectroscopy, and more than 95% pure. These conjugates were attached to albumin with an APD (acetylphenylenediamine) spacer attached to the carbohydrate by reductive animation and thus the terminal reducing monosaccharide unit of the oligosaccharide is reduced and is present as an aminoalditol, IsoSep AB, Tullinge, Sweden (T. Borén, P. Falk, K. A. Roth, G. Larson, and S. Normark, Science. 262, 1892 (1993), P. D. Rye, Nature Biotechnology 2, 155 (1996)). The synthesised sialyl-Lewis x- tetrasaccharide antigen was conjugated to albumin with the MPE (mercaptopropionyl-amidoethyl) -spacer, IsoSep AB. Synthesised sialyl-Lewis x-tetrasaccharide and sialyl-acetyllactosaminee, both with a either a 3 carbon or 14 carbon (extended/hydrophilic) spacer, conjugated to albumin, were obtained from Dextra Laboratories, Reading, UK. The RIA (Fig. 4) was performed according to (P. Falk, T. Borén, D. Haslam, M. G. Caparon, Meth. Cell Biol. 45, 161 (1994)) with minor modifications; the glycoconjugates were ^125I-labelled by the Chloramine T method. 1 ml of bacteria (A600= OD 0.10) was incubated with 400 ng of ^125I-labelled conjugate (that is an excess of receptor substrate) for 30 min. in phosphate buffered saline (PBS), 0.5 % albumin, 0.05 % Tween-20 (BB-buffer). After centrifugation, the ^125I-activity bound to the bacterial pellet was measured by gamma scintillation counting. Binding experiments were reproducible and performed in triplets. In addition, the level of binding-activity within the strain was stabile.

babA1A2-mutant = assay: Scatchard affinity analysis with sialylated conjugates; assay type: binding, Helicobacter pylori
Excerpt: as §5, with “1 ml of bacteria (A600= OD 0.10) was incubated with 400 ng of ^125I-labelled conjugate (that is an excess of receptor substrate) for 30 min. in phosphate buffered saline (PBS), 0.5 % albumin, 0.05 % Tween-20 (BB-buffer).” left out, “Binding experiments were reproducible and performed in triplets. In addition, the level of binding-activity within the strain was stabile.” left out

Compound | Binding obtained with strain CCUG 17875 ([1]; Table 1) | Binding obtained with strain CCUG 17875 ([1]; Table 2) | Binding obtained with strain CCUG 17874, the babA2 mutant and the babA1A2 mutant ([2]; Table 1) | Binding obtained with strain CCUG 17874, the babA2 mutant and the babA1A2 mutant ([2]; Table 2) | binding of 125I-labelled neoglycoconjugate (in words) (H. pylori strains) | other results
Galβ3GalNAcβ4(NeuAcα3)Galβ4Glcβ1Cer [GM1] | - (- denotes no darkening even at 2 nmol) | - (– denotes no darkening even at 2 nmol) | - (- denotes no darkening even at 2 nmol) | - (– denotes no darkening even at 2 nmol) |  | 
Galβ3GalNAcβ4(NeuAcα8NeuAcα3)Galβ4Glcβ1Cer [GD1b] | - (- denotes no darkening even at 2 nmol) | - (– denotes no darkening even at 2 nmol) | - (- denotes no darkening even at 2 nmol) | - (– denotes no darkening even at 2 nmol) |  | 
Neu5Acα3Galβ4GlcNAc [alfa2.31actoseamine with a 14 carbon spacer] |  |  |  |  | rather efficient binding | 
CC(=O)NC1C(O)CC(OCC2OC(OC3C(CO)OC(O)C(O)C3O)C(O)C(O)C2O)(C(=O)O)OC1C(O)C(O)CO (centres unmarked) [sialyl-alfa2.61actose antigen, Neu5Acα6Galβ4Glc] |  |  |  |  | Poor binding | binding of 125I-labelled neoglycoconjugate (in words) (H. pylori strains; listed as sialyl-alfa 2,6 lactose conjugate): did not demonstrate any binding activity
NeuAcα3Galβ3(Fucα4)GlcNAcβ3Galβ4Glcβ1Cer [S-Le^a] |  | - (– denotes no darkening even at 2 nmol) |  | - (– denotes no darkening even at 2 nmol) |  | binding to glycosphingolipids on thin-layer chromatograms (in words) [2]: almost no binding
NeuAcα3Galβ3GalNAcβ4(NeuAcα3)Galβ4Glcβ1Cer [GD1a] | - (- denotes no darkening even at 2 nmol) | - (– denotes no darkening even at 2 nmol) | - (- denotes no darkening even at 2 nmol) | - (– denotes no darkening even at 2 nmol) |  | 
NeuAcα3Galβ4(Fucα3)GlcNAcβ3Galβ4Glcβ1Cer [S-Le^x] |  |  |  |  |  | binding to glycosphingolipids on thin-layer chromatograms (in words) [2]: weak binding; amount required for binding ([2]; weak, occasionally observed binding on thin-layer chromatogram): 2 nmol
NeuAcα3Galβ4(Fucα3)GlcNAcβ3Galβ4(Fucα3)GlcNAcβ3Galβ4Glcβ1Cer | - (- denotes no darkening even at 2 nmol) | - (– denotes no darkening even at 2 nmol) | +++ (+++ denotes a significant darkening on the autoradiogram when 1 pmol was applied on the thin-layer plate) | +3 (+3 denotes a significant darkening on the autoradiogram when 1 pmol of structure was applied on the thin-layer plate) |  | detection level ([2]; binding on thin-layer chromatogram): approximately 1 pmol
Neu5Acα3Galβ4GlcNAc [equivalent structure linked by a shorter, 3 carbon spacer] |  |  |  |  | much reduced in binding | 
Fucα2Galβ3(Fucα4)GlcNAcβ3Galβ4Glcβ1Cer [Le^b-6] | +^3 (+ denotes a darkening at 2 nmol) | +3 (+3 denotes a significant darkening on the autoradiogram when 1 pmol of structure was applied on the thin-layer plate) | - (- denotes no darkening even at 2 nmol) | - (– denotes no darkening even at 2 nmol) |  | binding to glycosphingolipids on thin-layer chromatograms (in words) [2]: did not recognize
CC(=O)N[C@H]1[C@H]([C@H](O)[C@H](O)CO)O[C@@](O[C@H]2[C@@H](O)[C@@H](CO)O[C@@H](O[C@H]3[C@H](O)[C@@H](O)C(O)O[C@@H]3CO)[C@@H]2O)(C(=O)O)C[C@@H]1O (some centres unmarked) [sialyl-alfa2.31actose antigen, Neu5Acα3Galβ4Glc] |  |  |  |  | Poor binding | fold lower affinity (babA1A2-mutant; compared with the fucosylated sialyl-Lewis x structures): 20 fold; Kd (babA1A2-mutant; read-out: affinity according to Scatchard): 100 nM
NeuAcα3Galβ4Glcβ1Cer [GM3] | - (- denotes no darkening even at 2 nmol) | - (– denotes no darkening even at 2 nmol) | - (- denotes no darkening even at 2 nmol) | - (– denotes no darkening even at 2 nmol) |  | 
